Experimental data from paper PMC6859963, “Fragment screening for a protein-protein interaction inhibitor to WDR5” (Structural Dynamics, 2019).
Counter-ions that a name gives are not always drawn. Each block holds one molecule with its values, some of them ahead of it.

Columns and labels:
WDR5 [1] = target: T1, WDR5 (Homo sapiens, UniProt P61964); experiment: SPR binding of compounds to captured biotinylated WDR5, 1:1 steady-state affinity fit; conditions: for Kd: SPR; for LE (ligand efficiency): from SPR KD
T1 construct: hexahistidine-SUMO (N, cleaved yes); made in house; host or cells: E. coli BL21-CodonPlus-RIL
Experimental: SPR assay of small molecule binding used minimally biotinylated WDR5^23–334 protein captured on streptavidin-coated SPR chips. WDR5 (1 eq.) was mixed with freshly water-dissolved EZ-link Sulfo-NHS-LC-LC-biotin (0.8 eq., Thermofisher Scientific). The reaction mixture was incubated on ice for 2 h; unreacted biotin reagent was then removed from the mixture using size-exclusion chromatography on a Superdex 75 (10/300) column equilibrated in storage buffer (10 mM HEPES, 150 mM NaCl, 5 mM DTT).
(§1) SPR experiments were performed using a Biacore T200 or S200 biosensor with a CM5 chip (GE Healthcare). Streptavidin was coupled to the chip surface at 310 K in HBS-P+ running buffer (10 mM HEPES, pH 7.4, 150 mM NaCl, 0.05%[v/v] Tween-20) after a 10 min activation with a 1:1 mixture of NHS/EDC (N-hydroxysuccinimide/N-ethyl-N′-(3-[…])carbodiimide). Protein was diluted to 100 μg·ml^−1 at pH 4.5 (10 mM sodium acetate, 0.005%[v/v] Tween-20) and injected for 7 min. The surface was then blocked with 1 M ethanolamine, pH 8.0, for 7 min. Immobilization levels were typically 7000–13 000 RU, but as low as 1800 RU for compounds 55, 59, and Ac-ARV-NH2, where fitting uses a 1:1 kinetic model to determine dissociation rates. WDR5 capture was then performed over the streptavidin-coupled flow-cells at 293 K in HBS-P+ buffer with the addition of 5 mM DTT. Capture levels for fragment screening were ∼19 000 RU, while capture levels for subsequent testing were ∼9000 RU. The N-terminal domain of heat-shock protein 90 (Hsp90, UnprotKB P08238, residues 1–382) was captured (∼11 000 RU) during screening to provide an unrelated negative control surface, activity being monitored with intermittent ADP (adenosine diphosphate) injections. Biotin was subsequently injected over WDR5- and negative control protein-bound flow-cells to block remaining unbound streptavidin. SPR experiments were performed at 298 K in SPR running buffer containing 50 mM HEPES, 150 mM NaCl, 5 mM DTT, and 0.05%[v/v] Tween-20, 2%[v/v] DMSO. Initial fragments were screened at 100 μM. When performing dose-response testing, analytes were serially diluted (2- or 3-fold), injected for 30 s contact time, and allowed to dissociate for 30 s. The flow rate was 60 μl·min^−1. Binding sensorgrams were processed, solvent-corrected, and double-referenced using Scrubber software (BioLogic Software, Australia). […] Therefore, to determine binding affinities (KD values), responses at equilibrium for each analyte were fitted to a 1:1 steady-state affinity model available within Scrubber.

WDR5 [2] = target: T1, WDR5; experiment: SPR 1:1 kinetic model to determine dissociation rates from WDR5; assay type: binding; conditions: for koff: read-out: kd (dissociation rate); for binding to WDR5: samples were mixtures of diastereomers
Excerpt: Compound 1 was identified as a highly ligand efficient hit that binds the phenylalanine clamp of the WIN site, approximating the arginine headgroup of the WIN motif. […] Two peptidomimetics, with 1 replacing the arginine, were synthesized. Compounds 55 and 59 are analogs of the Ac-ARV-NH2 and Ac-α-MeAla-RV-NH2 tripeptides,[21] respectively (Fig. 5). […] The hydroxymethyl imidazole thus appears to be a good replacement for the charged arginine residue in this context, and 59 may serve as a tool compound with more sensible physicochemical parameters than previous potent tripeptides. […] Binding constants of compounds 55 and 59 are thus difficult to derive. Instead, the (concentration independent) dissociation rates have been reported for 55 and 59 (kd = 0.067 s^−1 and 0.025 s^−1, respectively) to provide a more meaningful comparison to the analogous tripeptide Ac-ARV-NH2 (kd = 0.054 s^−1). […] However, if multiple diastereomers of 55/59 were indeed binding WDR5, it would not detract from the conclusion that hydroxymethyl imidazole-peptidomimetics have potential as WDR5 WIN-site inhibitors.
as §1

[3] = Table IV, derivatives of 2, mean ± SE (SE not reported where n = 1)
[4] = Table III, ether-derivatized 2, mean ± SE (SE not reported where n = 1)
[5] = Table II, fragment core, mean ± SE (SE not reported where n = 1)
[6] = 1:1 kinetic model, concentration independent, 55 and 59 tested as mixtures of diastereomers

Molecule: COC(=O)N(CCCCc1nc(CO)c[nH]1)CC1CCNCC1 [Compound 40, Methyl (4-(4-(hydroxymethyl)-1H-imidazol-2-yl)butyl)(piperidin-4-ylmethyl)carbamate bis trifluoroacetic acid]
Kd (WDR5 [1]; [3]): 19 ± 3 µM

Molecule: COC(=O)N(CCCCc1nc(CO)c[nH]1)Cc1cc[nH]c(=O)c1 [Compound 47, Methyl (4-(4-(hydroxymethyl)-1H-imidazol-2-yl)butyl)((2-oxo-1,2-dihydropyridin-4-yl)methyl)carbamate hydrochloride]
Kd (WDR5 [1]; [3]): 24.2 ± 0.2 µM

Molecule: Cc1cc(CO)n[nH]1 [Compound 4]
Kd (WDR5 [1]; [5]): > 3000 µM

Molecule: CCOC(=O)CCc1nc(CO)c[nH]1 [Compound 24, ethyl 3-(4-(hydroxymethyl)-1H-imidazol-2-yl)propanoate]
Kd (WDR5 [1]; [3]): 240 ± 10 µM

Molecule: CNC(=O)CCc1nc(CO)c[nH]1 [Compound 23, 3-(4-(hydroxymethyl)-1H-imidazol-2-yl)-N-methylpropanamide]
Kd (WDR5 [1]; [3]): 890 µM

Molecule: Ac-ARV-NH2 [reference compound]
kd (dissociation rate) (WDR5 [2]; [6]): 0.054 s⁻¹

Molecule: Cc1nc(COC(C)C)c[nH]1 [Compound 9, 4-(isopropoxymethyl)-2-methyl-1H-imidazole]
Kd (WDR5 [1]; [4]): > 3000 µM

Molecule: OCc1c[nH]c(-c2ccccc2)n1 [Compound 13]
Kd (WDR5 [1]): 5200 µM
Kd (WDR5 [1]; [3]): > 3000 µM

Molecule: CC(=O)NC(C)C(=O)NC(CCCc1nc(CO)c[nH]1)C(=O)NC(C(N)=O)C(C)C (stereo not shown) [Compound 55, 2-(2-acetamidopropanamido)-N-(1-amino-3-methyl-1-oxobutan-2-yl)-5-(4-(hydroxymethyl)-1H-imidazol-2-yl)pentanamide]
koff (WDR5 [2]; [6]): 0.067 s⁻¹
binding to WDR5 (WDR5 [2]): Binding was observed

Molecule: OCc1ncc[nH]1 [Compound 5]
Kd (WDR5 [1]; [5]): > 3000 µM

Molecule: COC(=O)NCCCCc1ncc(CO)[nH]1.O=C(O)C(F)(F)F [Compound 32, Methyl (4-(5-(hydroxymethyl)-1H-imidazol-2-yl)butyl)carbamate trifluoroacetic acid]
Kd (WDR5 [1]; [3]): 28.9 ± 0.5 µM
LE (ligand efficiency) (WDR5 [1]): 0.39 kcal·mol^−1·heavy atom^−1

Molecule: Cc1nc(COCC(F)(F)F)c[nH]1 [Compound 10, 2-methyl-4-((2,2,2-trifluoroethoxy)methyl)-1H-imidazole]
Kd (WDR5 [1]; [4]): > 3000 µM

Molecule: OCc1c[nH]cn1 [Compound 3]
Kd (WDR5 [1]): > 3000 µM
potency estimated from few doses (WDR5 [1]; Table II, estimated from single concentration (100 μM) screen, read-out: KD): > 3000 µM

The next lines start with the values.

Kd (WDR5 [1]; [4]): 950 µM
Molecule: Cc1nc(COCc2ccccc2)c[nH]1 [Compound 11, 4-((benzyloxy)methyl)-2-methyl-1H-imidazole]

Kd (WDR5 [1]; [3]): 98.6 ± 0.6 µM
fold weaker binding than 37 (WDR5 [1]; ratio of SPR KD values): 20 fold
Molecule: COC(=O)N(CCCCc1nc(CO)c[nH]1)Cc1ccc(=O)[nH]c1.O=C(O)C(F)(F)F [Compound 45, Methyl (4-(4-(hydroxymethyl)-1H-imidazol-2-yl)butyl)((6-oxo-1,6-dihydropyridin-3-yl)methyl)carbamate trifluoroacetic acid]

Kd (WDR5 [1]; [3]): 530 µM
Molecule: OCc1c[nH]c(Cc2ccccc2)n1 [Compound 14, (2-benzyl-1H-imidazol-4-yl)methanol]

Kd (WDR5 [1]; [3]): 350 ± 40 µM
Molecule: NCCCCc1ncc(CO)[nH]1 [Compound 28, (2-(4-aminobutyl)-1H-imidazol-5-yl)methanol bis trifluoroacetic acid]

Kd (WDR5 [1]; [4]): > 3000 µM
Molecule: CCCOCc1c[nH]c(C)n1 [Compound 8, 2-methyl-4-(propoxymethyl)-1H-imidazole]

Kd (WDR5 [1]; [3]): 4.5 ± 0.3 µM
Molecule: COC(=O)N(CCCCc1ncc(CO)[nH]1)Cc1ccccc1 [Compound 37, Methyl benzyl(4-(5-(hydroxymethyl)-1H-imidazol-2-yl)butyl)carbamate trifluoroacetic acid]

Kd (WDR5 [1]; [3]): 11 ± 1 µM
Molecule: O=C(NCCCCc1ncc(CO)[nH]1)OCc1ccccc1 [Compound 35, Benzyl (4-(5-(hydroxymethyl)-1H-imidazol-2-yl)butyl)carbamate trifluoroacetic acid]

Kd (WDR5 [1]; [3]): 12 ± 1 µM
Molecule: O=C(NCCCCc1ncc(CO)[nH]1)c1ccccc1 [Compound 30, N-(4-(5-(hydroxymethyl)-1H-imidazol-2-yl)butyl)benzamide]

Kd (WDR5 [1]; [3]): 22 ± 6 µM
LE (ligand efficiency) (WDR5 [1]): 0.35 kcal·mol^−1·heavy atom^−1
Molecule: COC(CCc1nc(CO)c[nH]1)c1ccccc1 (stereo not shown) [Compound 17, (2-(3-methoxy-3-phenylpropyl)-1H-imidazol-4-yl)methanol]

Kd (WDR5 [1]; [5]): 480 ± 30 µM
LE (ligand efficiency) (WDR5 [1]): 0.41 kcal·mol^−1·heavy atom^−1
Molecule: CCCCc1ncc(CO)[nH]1 [Compound 1, (2-butyl-1H-imidazol-5-yl)methanol]

koff (WDR5 [2]; [6]): 0.025 s⁻¹
binding to WDR5 (WDR5 [2]): Binding was observed
Molecule: CC(=O)NC(C)(C)C(=O)NC(CCCc1nc(CO)c[nH]1)C(=O)NC(C(N)=O)C(C)C (stereo not shown) [Compound 59, 2-(2-acetamido-2-methylpropanamido)-N-(1-amino-3-methyl-1-oxobutan-2-yl)-5-(4-(hydroxymethyl)-1H-imidazol-2-yl)pentanamide]

Kd (WDR5 [1]; [3]): 25 ± 3 µM
Molecule: O=C(Cc1ccccc1)NCCCCc1ncc(CO)[nH]1 [Compound 31, N-(4-(5-(hydroxymethyl)-1H-imidazol-2-yl)butyl)-2-phenylacetamide trifluoroacetic acid]

Kd (WDR5 [1]; [3]): 140 ± 30 µM
LE (ligand efficiency) (WDR5 [1]): 0.33 kcal·mol^−1·heavy atom^−1
Molecule: OCc1c[nH]c(CCCc2ccccc2)n1 [Compound 16, (2-(3-phenylpropyl)-1H-imidazol-4-yl)methanol]

Kd (WDR5 [1]; [3]): 200 ± 10 µM
Molecule: CC(=O)NCCCCc1ncc(CO)[nH]1 [Compound 29, N-(4-(5-(hydroxymethyl)-1H-imidazol-2-yl)butyl)acetamide trifluoroacetic acid]

Kd (WDR5 [1]; [3]): 300 ± 40 µM
Molecule: OCc1c[nH]c(CCc2ccccc2)n1 [Compound 15, (2-phenethyl-1H-imidazol-4-yl)methanol]

Kd (WDR5 [1]; [4]): > 3000 µM
Molecule: COCc1c[nH]c(C)n1 [Compound 7]

Kd (WDR5 [1]; [5]): 2100 µM
LE (ligand efficiency) (WDR5 [1]): 0.60 kcal·mol^−1·heavy atom^−1
Molecule: Cc1ncc[nH]1 [Compound 6, 2-methyl imidazole]

Kd (WDR5 [1]; [5]): 260 ± 20 µM
Kd (WDR5 [1]; [4]): 260 ± 20 µM
LE (ligand efficiency) (WDR5 [1]): 0.61 kcal·mol^−1·heavy atom^−1
Molecule: Cc1nc(CO)c[nH]1 [Compound 2, (2-methyl-imidazol-4-yl)methanol]
